Among the data in US20210070748A1, “INHIBITORS OF BRUTONS TYROSINE KINASE” (Pharmacyclics LLC, priority 2015, published 2021) are IC50 values, retold here.

Molecules are shown by their SMILES.

Assay type in all cases: biochemical
In one assay the target is T1, BTK-WT (Homo sapiens, UniProt Q06187).
T1 construct: purified from insect cells as a full-length construct containing an N-terminal 6X-His tag; His6 (N); made in house; host or cells: insect cells (baculovirus Sf21 in Method B)
The assay is described as follows: Btk in vitro inhibitory activity (one of Method A TR-FRET, Method B electrophoretic mobility shift, Method C radiometric filter binding). As to conditions: D-compounds panel data; read-out: IC50 BTK-WT. A general note: Mobility shift assays separate free from complexed probe on a gel.

In the next assay the target is T2, JAK3 (Homo sapiens, UniProt P52333).
T2 sequence (P52333 1-1124): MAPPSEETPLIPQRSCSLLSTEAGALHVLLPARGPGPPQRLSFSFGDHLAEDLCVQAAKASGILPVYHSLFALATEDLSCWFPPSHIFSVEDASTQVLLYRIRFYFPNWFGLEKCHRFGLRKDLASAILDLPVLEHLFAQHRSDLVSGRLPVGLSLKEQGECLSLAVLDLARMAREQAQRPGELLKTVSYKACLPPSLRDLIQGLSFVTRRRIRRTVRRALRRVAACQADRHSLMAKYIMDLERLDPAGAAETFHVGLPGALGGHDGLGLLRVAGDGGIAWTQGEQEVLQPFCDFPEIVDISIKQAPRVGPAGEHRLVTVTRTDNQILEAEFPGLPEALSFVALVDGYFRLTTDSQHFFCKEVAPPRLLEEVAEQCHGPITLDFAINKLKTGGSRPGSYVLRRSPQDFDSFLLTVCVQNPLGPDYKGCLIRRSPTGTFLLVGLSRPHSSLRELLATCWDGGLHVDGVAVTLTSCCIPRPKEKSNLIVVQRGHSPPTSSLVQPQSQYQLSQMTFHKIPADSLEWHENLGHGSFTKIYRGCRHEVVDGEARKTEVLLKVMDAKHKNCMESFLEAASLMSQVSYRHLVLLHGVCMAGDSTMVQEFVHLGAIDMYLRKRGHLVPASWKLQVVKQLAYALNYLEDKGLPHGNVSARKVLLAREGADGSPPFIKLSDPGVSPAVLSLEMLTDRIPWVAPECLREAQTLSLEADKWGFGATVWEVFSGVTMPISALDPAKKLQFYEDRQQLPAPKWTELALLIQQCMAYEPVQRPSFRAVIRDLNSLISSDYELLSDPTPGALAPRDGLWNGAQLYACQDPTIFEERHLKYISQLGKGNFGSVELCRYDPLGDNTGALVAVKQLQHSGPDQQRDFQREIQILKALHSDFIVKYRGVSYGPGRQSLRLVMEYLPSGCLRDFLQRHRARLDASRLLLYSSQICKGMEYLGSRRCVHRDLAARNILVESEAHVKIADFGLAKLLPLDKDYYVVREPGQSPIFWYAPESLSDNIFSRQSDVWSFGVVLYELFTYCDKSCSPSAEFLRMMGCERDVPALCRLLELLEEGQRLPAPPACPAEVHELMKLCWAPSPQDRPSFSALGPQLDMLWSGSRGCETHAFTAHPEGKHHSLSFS
Briefly: Inhibition of a panel of kinases, in vitro HotSpot kinase assay: JAK3. As to conditions: D-compounds panel data; 1 μM ATP; read-out: IC50 JAK3.

The next assay addresses EGFR (Homo sapiens, UniProt P00533). Briefly: Inhibition of a panel of kinases, in vitro HotSpot kinase assay: EGFR. As to conditions: D-compounds panel data; 1 μM ATP. On the procedure: (§1) The degree of inhibition of a panel of kinases is determined using the in vitro HotSpot kinase assay (purified enzymes, ^33P-ATP, an appropriate substrate and 1 μM ATP).
Another assay has as its target SRC (Homo sapiens, UniProt P12931). Briefly: Inhibition of a panel of kinases, in vitro HotSpot kinase assay: SRC. As to conditions: D-compounds panel data; 1 μM ATP. On the procedure:
as §1

SRC, sequence (P12931 whole entry): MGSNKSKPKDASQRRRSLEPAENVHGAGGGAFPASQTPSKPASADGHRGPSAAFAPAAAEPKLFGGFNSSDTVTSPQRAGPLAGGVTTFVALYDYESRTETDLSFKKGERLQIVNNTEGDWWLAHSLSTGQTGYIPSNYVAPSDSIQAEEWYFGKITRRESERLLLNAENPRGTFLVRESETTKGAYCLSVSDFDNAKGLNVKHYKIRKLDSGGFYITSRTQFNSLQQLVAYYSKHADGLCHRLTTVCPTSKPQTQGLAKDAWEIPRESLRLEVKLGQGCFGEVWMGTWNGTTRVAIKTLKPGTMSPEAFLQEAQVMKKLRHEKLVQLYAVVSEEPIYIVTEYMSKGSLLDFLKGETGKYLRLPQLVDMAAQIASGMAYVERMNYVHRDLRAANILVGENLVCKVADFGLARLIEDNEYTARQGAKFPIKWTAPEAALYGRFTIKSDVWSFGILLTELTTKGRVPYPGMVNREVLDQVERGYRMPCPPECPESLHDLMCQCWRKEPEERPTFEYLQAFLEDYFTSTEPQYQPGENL
EGFR, sequence (P00533 25-1210): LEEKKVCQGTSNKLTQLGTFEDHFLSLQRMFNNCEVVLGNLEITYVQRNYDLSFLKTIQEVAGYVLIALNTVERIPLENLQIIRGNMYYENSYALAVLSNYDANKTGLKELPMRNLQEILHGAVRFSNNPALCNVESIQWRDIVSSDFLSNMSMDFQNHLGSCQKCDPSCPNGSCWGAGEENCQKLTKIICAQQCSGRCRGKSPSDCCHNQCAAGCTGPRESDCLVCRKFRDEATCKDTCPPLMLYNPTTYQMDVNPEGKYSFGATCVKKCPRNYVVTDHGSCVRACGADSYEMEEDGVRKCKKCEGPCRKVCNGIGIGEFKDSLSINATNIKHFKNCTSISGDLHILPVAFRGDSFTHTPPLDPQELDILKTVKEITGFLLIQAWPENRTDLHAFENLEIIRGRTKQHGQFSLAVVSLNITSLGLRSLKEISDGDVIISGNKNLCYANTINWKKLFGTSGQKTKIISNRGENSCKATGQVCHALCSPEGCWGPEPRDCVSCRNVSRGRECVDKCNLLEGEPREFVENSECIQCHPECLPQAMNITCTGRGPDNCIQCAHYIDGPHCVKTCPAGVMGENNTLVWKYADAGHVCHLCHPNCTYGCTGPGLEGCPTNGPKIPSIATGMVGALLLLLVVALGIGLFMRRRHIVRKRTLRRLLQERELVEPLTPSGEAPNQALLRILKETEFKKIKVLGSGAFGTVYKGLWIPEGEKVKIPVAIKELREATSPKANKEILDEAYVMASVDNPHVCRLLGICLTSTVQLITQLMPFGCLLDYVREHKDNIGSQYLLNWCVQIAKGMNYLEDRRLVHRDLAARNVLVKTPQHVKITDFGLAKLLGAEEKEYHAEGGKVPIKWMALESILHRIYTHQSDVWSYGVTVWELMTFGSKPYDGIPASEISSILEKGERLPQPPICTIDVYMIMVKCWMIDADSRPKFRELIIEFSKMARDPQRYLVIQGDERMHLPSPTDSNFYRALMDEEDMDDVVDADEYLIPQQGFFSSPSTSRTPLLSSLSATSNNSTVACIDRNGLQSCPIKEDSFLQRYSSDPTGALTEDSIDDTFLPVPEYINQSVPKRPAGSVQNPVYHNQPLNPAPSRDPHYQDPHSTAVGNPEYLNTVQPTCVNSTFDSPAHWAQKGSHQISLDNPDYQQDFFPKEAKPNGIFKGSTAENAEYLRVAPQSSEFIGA
T1 sequence (Q06187 whole entry): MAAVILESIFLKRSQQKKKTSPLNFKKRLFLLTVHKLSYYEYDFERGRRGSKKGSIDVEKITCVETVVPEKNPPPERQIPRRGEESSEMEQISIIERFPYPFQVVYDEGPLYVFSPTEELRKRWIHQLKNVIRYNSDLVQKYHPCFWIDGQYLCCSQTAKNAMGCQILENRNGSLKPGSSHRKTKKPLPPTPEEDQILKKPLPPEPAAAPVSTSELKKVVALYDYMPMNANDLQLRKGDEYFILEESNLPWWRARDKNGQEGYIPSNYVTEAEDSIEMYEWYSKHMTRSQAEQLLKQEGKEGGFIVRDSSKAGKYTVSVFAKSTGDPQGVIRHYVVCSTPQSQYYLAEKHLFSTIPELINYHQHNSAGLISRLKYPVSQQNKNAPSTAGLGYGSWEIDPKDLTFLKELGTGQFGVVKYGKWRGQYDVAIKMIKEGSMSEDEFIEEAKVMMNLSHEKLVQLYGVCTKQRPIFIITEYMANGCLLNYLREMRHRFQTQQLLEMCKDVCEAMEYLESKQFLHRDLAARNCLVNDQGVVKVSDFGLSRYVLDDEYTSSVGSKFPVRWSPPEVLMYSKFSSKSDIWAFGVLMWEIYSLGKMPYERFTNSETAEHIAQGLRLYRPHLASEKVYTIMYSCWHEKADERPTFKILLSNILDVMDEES

Usually IC50 stands for the concentration needed to halve the response being measured. In the case of `C[C@@H]1[C@H](NC(=O)c2ccc(C3CC3)cc2F)CCCN1c1cnc(C(N)=O)c(Nc2ccc(N3CCN(C)CC3)nc2)n1` [Example D-13, 5-[(2R,3R)-3-(4-cyclopropyl-2-fluorobenzamido)-2-methylpiperidin-1-yl]-3-{[6-(4-methylpiperazin-1-yl)pyridin-3-yl]amino}pyrazine-2-carboxamide], the IC50 is no more than 0.01 µM on BTK-WT, 1 to 10 µM at JAK3, 1 to 10 µM against EGFR and 0.1 to 1 µM on SRC.
Turning to `Cn1cc(Nc2nc(N3CCC(F)(F)[C@H](NC(=O)c4ccc(C5CC5)cc4)C3)cnc2C(N)=O)cn1` [Example D-192, 5-[(3R)-3-(4-cyclopropylbenzamido)-4,4-difluoropiperidin-1-yl]-3-[(1-methyl-1H-pyrazol-4-yl)amino]pyrazine-2-carboxamide], the IC50 is 1 to 10 µM on BTK-WT, 1 to 10 µM on JAK3, greater than 10 µM against EGFR and 1 to 10 µM on SRC.
Take `C[C@H]1CC[C@@H](NC(=O)c2ccc(C(C)(C)O)cc2)CN1c1cnc(C(N)=O)c(Nc2cnn(C)c2)n1` [Example D-236, 5-[(2S,5R)-5-[4-(2-hydroxypropan-2-yl)benzamido]-2-methylpiperidin-1-yl]-3-[(1-methyl-1H-pyrazol-4-yl)amino]pyrazine-2-carboxamide]: the IC50 on BTK-WT was no more than 0.01 µM; on JAK3 it was 0.1 to 1 µM; on EGFR it was 0.1 to 1 µM; on SRC, 0.01 to 0.1 µM.
As to `Cn1cc(Nc2nc(N3CCC[C@@H](n4ccc5cc(C6CC6)ccc5c4=O)C3)nnc2C(N)=O)cn1` [Example D-206, 3-[(3R)-3-(6-cyclopropyl-1-oxo-1,2-dihydroisoquinolin-2-yl)piperidin-1-yl]-5-[(1-methyl-1H-pyrazol-4-yl)amino]-1,2,4-triazine-6-carboxamide], the IC50 was no more than 0.01 µM at BTK-WT, 1 to 10 µM at JAK3, 1 to 10 µM on EGFR and 0.01 to 0.1 µM against SRC.
`C[C@@H]1[C@H](NC(=O)c2ccc(N(C)C)cc2)CCCN1c1cnc(C(N)=O)c(Nc2ccc(C3(C)CCN(C4CCCC4)CC3)cc2)n1` [Example D-183, 3-{[4-(1-cyclopentyl-4-methylpiperidin-4-yl)phenyl]amino}-5-[(2R,3R)-3-[4-(dimethylamino)benzamido]-2-methylpiperidin-1-yl]pyrazine-2-carboxamide]: the half-maximal inhibitory concentration (IC50) at BTK-WT was no more than 0.01 µM; on JAK3, 0.1 to 1 µM; against EGFR, 0.1 to 1 µM; against SRC, no more than 0.01 µM.
In the case of `Cn1cc(Nc2nc(N3C4CCC(NC(=O)c5ccc(C6CC6)cc5)C3CC4)cnc2C(N)=O)cn1` (single isomer, unassigned) [Example D-199, 5-[2-(4-cyclopropylbenzamido)-8-azabicyclo[3.2.1]octan-8-yl]-3-[(1-methyl-1H-pyrazol-4-yl)amino]pyrazine-2-carboxamide], the IC50 was 1 to 10 µM on BTK-WT, 1 to 10 µM on JAK3, greater than 10 µM at EGFR and 1 to 10 µM against SRC.
As for `Cn1cc(Nc2nc(N3CCC(F)(F)[C@@H](NC(=O)c4ccc(C5CC5)cc4)C3)cnc2C(N)=O)cn1` [Example D-193, 5-[(3S)-3-(4-cyclopropylbenzamido)-4,4-difluoropiperidin-1-yl]-3-[(1-methylpyrazol-4-yl)amino]pyrazine-2-carboxamide], the concentration for half-maximal inhibition (IC50) at BTK-WT is 0.01 to 0.1 µM; on JAK3, 1 to 10 µM; on EGFR it was greater than 10 µM; against SRC it was 1 to 10 µM.
As for `Cn1cc(Nc2nc(N3CCC[C@@H](NC(=O)c4ccc(C5CC5)cc4)C3)nnc2C(N)=O)cn1` [Example D-195, 3-[(3R)-3-(4-cyclopropylbenzamido)piperidin-1-yl]-5-[(1-methyl-1H-pyrazol-4-yl)amino]-1,2,4-triazine-6-carboxamide], the IC50 on BTK-WT is no more than 0.01 µM; at JAK3 it was 1 to 10 µM; against EGFR, greater than 10 µM; at SRC, 0.1 to 1 µM.
Consider `Cc1ccc(C(=O)N[C@@H]2CCCN(c3cnc(C(N)=O)c(Nc4cnn(C)c4)n3)[C@@H]2C)cc1` [Example D-232, 3-[(1-methyl-1H-pyrazol-4-yl)amino]-5-[(2R,3R)-2-methyl-3-(4-methylbenzamido)piperidin-1-yl]pyrazine-2-carboxamide], for which the half-inhibitory concentration (IC50) is no more than 0.01 µM on BTK-WT, 1 to 10 µM on JAK3, 1 to 10 µM on EGFR and 0.01 to 0.1 µM at SRC.
Regarding `C[C@@H]1[C@H](NC(=O)c2ccc(C(C)(O)C(F)(F)F)cc2)CCCN1c1cnc(C(N)=O)c(Nc2cnn(C)c2)n1` (single isomer, unassigned) [Example D-213], the IC50 at BTK-WT is no more than 0.01 µM; on JAK3, 1 to 10 µM; against EGFR it was 1 to 10 µM; at SRC, 0.01 to 0.1 µM.
`C[C@@H]1[C@H](NC(=O)c2ccc(S(C)(=O)=O)cc2)CCCN1c1cnc(C(N)=O)c(Nc2ccc(N3CCN(C)CC3)cc2)n1` [Example D-227, 5-[(2R,3R)-3-(4-methanesulfonylbenzamido)-2-methylpiperidin-1-yl]-3-{[4-(4-methylpiperazin-1-yl)phenyl]amino}pyrazine-2-carboxamide]: the IC50 on BTK-WT is no more than 0.01 µM; on JAK3, 0.1 to 1 µM; at EGFR, 0.1 to 1 µM; at SRC it was no more than 0.01 µM.
As to `C[C@@H]1[C@H](NC(=O)c2ccc(C3(O)CC3)cc2)CCCN1c1cnc(C(N)=O)c(Nc2cnn(C)c2)n1` [Example D-235, 5-[(2R,3R)-3-[4-(1-hydroxycyclopropyl)benzamido]-2-methylpiperidin-1-yl]-3-[(1-methyl-1H-pyrazol-4-yl)amino]pyrazine-2-carboxamide], the half-maximal inhibitory concentration (IC50) is no more than 0.01 µM on BTK-WT, 0.1 to 1 µM at JAK3, 0.1 to 1 µM against EGFR and 0.01 to 0.1 µM against SRC.
As to `C[C@@H]1[C@H](NC(=O)N(C)C)CCCN1c1cnc(C(N)=O)c(Nc2ccc(N3CCN(C4CCCC4)CC3)cc2)n1` [Example D-182, 3-{[4-(4-cyclopentylpiperazin-1-yl)phenyl]amino}-5-[(2R,3R)-3-[(dimethylcarbamoyl)amino]-2-methylpiperidin-1-yl]pyrazine-2-carboxamide], the half-maximal inhibitory concentration (IC50) on BTK-WT is no more than 0.01 µM; on JAK3, 0.1 to 1 µM; against EGFR, 0.1 to 1 µM; at SRC, 0.01 to 0.1 µM.
Regarding `Cc1ncc(Nc2nc(N3CCC[C@@H](NC(=O)c4ccc(C5CC5)cc4)[C@H]3C)cnc2C(N)=O)s1` [Example D-210, 5-[(2R,3R)-3-(4-cyclopropylbenzamido)-2-methylpiperidin-1-yl]-3-[(2-methyl-1,3-thiazol-5-yl)amino]pyrazine-2-carboxamide], the IC50 is no more than 0.01 µM on BTK-WT, 1 to 10 µM on JAK3, 1 to 10 µM on EGFR and 0.1 to 1 µM against SRC.
With `C[C@@H]1[C@H](NC(=O)c2ccc3c(c2)OCCO3)CCCN1c1cnc(C(N)=O)c(Nc2cnn(C)c2)n1` [Example D-224, 5-[(2R,3R)-3-(2,3-dihydro-1,4-benzodioxine-6-amido)-2-methylpiperidin-1-yl]-3-[(1-methyl-1H-pyrazol-4-yl)amino]pyrazine-2-carboxamide], the IC50 on BTK-WT was no more than 0.01 µM; at JAK3 it was 1 to 10 µM; on EGFR, 0.1 to 1 µM; at SRC it was 0.01 to 0.1 µM.
For `Cn1cc(Nc2nc(N3C4CCC(NC(=O)c5ccc(C6CC6)cc5)C3CC4)cnc2C(N)=O)cn1` (single isomer, unassigned) [Example D-200, 5-[2-(4-cyclopropylbenzamido)-8-azabicyclo[32.1]octan-8-yl]-3-[(1-methyl-1H-pyrazol-4-yl)amino]pyrazine-2-carboxamide] the same measures were 0.1 to 1 µM, greater than 10 µM, 1 to 10 µM and 1 to 10 µM.
The matching figures for `C[C@@H]1[C@H](NC(=O)c2ccc(C(C)(O)C(F)(F)F)cc2)CCCN1c1cnc(C(N)=O)c(Nc2cnn(C)c2)n1` (single isomer, unassigned) [Example D-214]: no more than 0.01 µM, 1 to 10 µM, 0.1 to 1 µM and 0.01 to 0.1 µM.
